Measurements reported in US20220273631A1, “METHOD FOR TREATING SEXUAL DYSFUNCTION” (Catalyst Pharmaceuticals, Inc., priority 2019, published 2022).

Columns and labels:
subject two = assay: International Index of Erectile Function (IIEF) self-report before and after 4-week oral treatment; format: in vivo, human; set-up: key to IIEF question 1 score: able to get an erection during sexual activity / IIEF question 4 score: able to maintain erection after penetration / IIEF question 7 score: attempted intercourse satisfactory: each question scored 0-5; conditions: for IIEF question 1 score: able to get an erection during sexual activity / IIEF question 2 score: erections hard enough for penetration / IIEF question 3 score: able to penetrate partner when attempting intercourse / IIEF question 4 score: able to maintain erection after penetration / IIEF question 5 score: difficulty to maintain erection to completion of intercourse / IIEF question 6 score: attempts for sexual intercourse / IIEF question 7 score: attempted intercourse satisfactory / IIEF question 8 score: enjoyment of sexual intercourse / IIEF question 9 score: ejaculated with sexual stimulation or intercourse / IIEF question 10 score: feeling of orgasm or climax / IIEF question 11 score: how often felt sexual desire / IIEF question 12 score: level of sexual desire / IIEF question 13 score: satisfaction with overall sex life / IIEF question 14 score: satisfaction with sexual relationship with partner / IIEF question 15 score: confidence to get and keep an erection: post-treatment IIEF
Source text: The “International Index of Erectile Function” or “IIEF” is a self-report inventory consisting of 15 questions and 5 functional domains, which was developed for use in determining efficacy of treatment in controlled clinical trials. The IIEF has high sensitivity and specificity for detecting real treatment effects or the lack of treatment effects in patients with ED of broad-spectrum etiology. A score of 0-5 is awarded to each of the 15 questions that examine the 4 main domains of male sexual function: erectile function, orgasmic function, sexual desire, and intercourse satisfaction. Rosen, R., et al. (in Urology 49:822-830 (1997)) describe a study where the IIEF was tested in a series of 111 men with […] and 109 age-matched, normal volunteers. In some embodiments, the therapeutic efficacy of 3,4-diaminopyridine, or a pharmaceutically acceptable thereof, in the present methods in male subjects can be assessed by the Brief Male Sexual Function Inventory (BSFI) described by, for example, Mykletun et al., BJU International 97:316-323 (2005). In some embodiments, the Male Sexual Health Questionnaire (MSHQ) can be used to assess sexual function and satisfaction in older men with urogenital symptoms of lower urinary tract and sexual dysfunction. See, e.g., Rosen, et al., Urology 64(4):777-782 (2004). In some embodiments, the therapeutic efficacy of 3,4-diaminopyridine, or a pharmaceutically acceptable thereof, in the present methods in male subjects, can be assessed by the 15-question International Index of Erectile Function (IIEF) described by, for example, Rosen et al., Urology 49:822-830 (1997). […] The subject then orally self-administered a total daily dose of 60 mg (4 times 15 mg) of 3,4-diaminopyridine phosphate salt for 4 weeks. The last dose of each day was self-administered at about 8:30 pm. The timing of their sexual activity, if any, was at about 11:30 am (after the 11 am dose) or at about 4 pm. After the 4-week treatment period, the subject self-reported sexual functioning for the past 4 weeks using the IIEF questionnaire (“the post-treatment IIEF”). […] The subject then orally self-administered a total daily dose of 80 mg (4 times 20 mg) of 3,4-diaminopyridine phosphate salt for 4 weeks. The last dose of each day was self-administered at about 6:30 pm. The timing of their sexual activity, if any, was at about 7:30 pm. After the 4-week treatment period, the subject self-reported sexual functioning for the past 4 weeks using the IIEF questionnaire (“the post-treatment IIEF”).

subject one = assay: Female Sexual Functioning Index (FSFI) self-report before and after 4-week oral treatment; format: in vivo, human; conditions: for FSFI: confidence about becoming sexually aroused / FSFI: difficulty to become lubricated / FSFI: difficulty to maintain lubrication until completion / FSFI: difficulty to reach orgasm / FSFI: how often became lubricated / FSFI: how often felt sexual desire or interest / FSFI: how often felt sexually aroused / FSFI: how often maintained lubrication until completion / FSFI: how often reached orgasm / FSFI: how often satisfied with arousal / FSFI: level of sexual arousal / FSFI: level of sexual desire or interest / FSFI: satisfaction with ability to reach orgasm / FSFI: satisfaction with amount of emotional closeness with partner / FSFI: satisfaction with overall sexual life / FSFI: satisfaction with sexual relationship with partner: post-treatment FSFI
Source text: The “Female Sexual Functioning Index” or “FSFI” is a 19-item self-report inventory designed to assess female sexual function. It comprises six domains: desire (two items)], arousal (four items), lubrication (four items), orgasm, satisfaction, and pain (three items each).
The therapeutic efficacy of 3,4-diaminopyridine and its salts in the present methods can be determined by clinicians, for example, by using appropriate self-report inventories or questionnaires. In some embodiments, the therapeutic efficacy of 3,4-diaminopyridine, or a pharmaceutically acceptable thereof, in the present methods in female subjects can be assessed by the Female Sexual Functioning Index (FSFI) designed to measure sexual functioning in women. See, e.g., Rosen et al., Journal of Sex and Marital Therapy 26:191-208 (2000).
subject one self-reported their sexual functioning for the past 4 weeks using the FSFI questionnaire (“the pre-treatment FSFI”).
The subject then orally self-administered a total daily dose of 80 mg of 3,4-diaminopyridine phosphate salt for 4 weeks. The last dose of each day was self-administered at about 5:30 pm. The timing of their sexual activity, if any, was in the evening.
After the 4-week treatment period, the subject self-reported their sexual functioning for the past 4 weeks using the FSFI questionnaire (“the post-treatment FSFI”).
The subject then orally self-administered a total daily dose of 60 mg of 3,4-diaminopyridine phosphate salt for 4 weeks. The last dose of each day was self-administered at about 6 pm. The timing of their sexual activity, if any, was in the evening at 8-9 pm.
The subject then orally self-administered a total daily dose of 40 mg of 3,4-diaminopyridine phosphate salt for 4 weeks. The last dose of each day was self-administered at about 11 pm (5 mg). The timing of their sexual activity, if any, was in the morning, afternoon, and at night.

[1] = Example 4, subject, 60 mg daily (4 times 15 mg) orally for 4 weeks
[2] = Example 4, subject, 60 mg daily orally for 4 weeks
[3] = Example 4, subject, 60 mg daily orally for 4 weeks, maximum score 10, pre-treatment score 4
[4] = Example 5, subject, 80 mg daily (4 times 20 mg) orally for 4 weeks
[5] = Example 1 subject one, total daily dose 80 mg orally for 4 weeks
[6] = Example 2 subject one, total daily dose 60 mg orally for 4 weeks
[7] = Example 3 subject one, total daily dose 40 mg orally for 4 weeks
[8] = four week course of an effective daily dose, general statement

## Nc1ccncc1N.O=P(O)(O)O [3,4-diaminopyridine phosphate salt]
Subject two; [1]
  IIEF question 1 score: able to get an erection during sexual activity: 4
  IIEF question 2 score: erections hard enough for penetration: 4
  IIEF question 3 score: able to penetrate partner when attempting intercourse: 4
  IIEF question 4 score: able to maintain erection after penetration: 3
  IIEF question 5 score: difficulty to maintain erection to completion of intercourse: 4
  IIEF question 6 score: attempts for sexual intercourse: 3
  IIEF question 7 score: attempted intercourse satisfactory: 4
  IIEF question 8 score: enjoyment of sexual intercourse: 4
  IIEF question 9 score: ejaculated with sexual stimulation or intercourse: 4
  IIEF question 10 score: feeling of orgasm or climax: 4
  IIEF question 11 score: how often felt sexual desire: 5
  IIEF question 12 score: level of sexual desire: 4
  IIEF question 13 score: satisfaction with overall sex life: 4
  IIEF question 14 score: satisfaction with sexual relationship with partner: 4
  IIEF question 15 score: confidence to get and keep an erection: 4
Subject two; [2]
  arousal (subject report): more aroused
  overall sexual performance (subject report): better
Subject two; Example 4, subject, 60 mg daily orally for 4 weeks, Table 3
  effect on all the 5 IIEF domains of male sexual function: improved
Subject two; [3]
  Post-Treatment Score, IIEF domain B. Orgasmic Function (questions 9 and 10): 8
  Post-Treatment Score, IIEF domain E. Overall Satisfaction (questions 13 and 14): 8
Subject two; Example 4, subject, 60 mg daily orally for 4 weeks, maximum score 10, pre-treatment score 5
  Post-Treatment Score, IIEF domain C. Sexual Desire (questions 11 and 12): 9
Subject two; Example 4, subject, 60 mg daily orally for 4 weeks, maximum score 15, pre-treatment score 5
  Post-Treatment Score, IIEF domain D. Intercourse Satisfaction (questions 6-8): 11
Subject two; Example 4, subject, 60 mg daily orally for 4 weeks, maximum score 30, pre-treatment score 8
  Post-Treatment Score, IIEF domain A. Erectile Function (questions 1-5 and 15): 23
Subject two; [4]
  IIEF question 1 score: able to get an erection during sexual activity: 4
  IIEF question 2 score: erections hard enough for penetration: 4
  IIEF question 3 score: able to penetrate partner when attempting intercourse: 4
  IIEF question 4 score: able to maintain erection after penetration: 3
  IIEF question 5 score: difficulty to maintain erection to completion of intercourse: 4
  IIEF question 6 score: attempts for sexual intercourse: 3
  IIEF question 7 score: attempted intercourse satisfactory: 4
  IIEF question 8 score: enjoyment of sexual intercourse: 4
  IIEF question 9 score: ejaculated with sexual stimulation or intercourse: 4
  IIEF question 10 score: feeling of orgasm or climax: 4
  IIEF question 11 score: how often felt sexual desire: 5
  IIEF question 12 score: level of sexual desire: 4
  IIEF question 13 score: satisfaction with overall sex life: 4
  IIEF question 14 score: satisfaction with sexual relationship with partner: 4
  IIEF question 15 score: confidence to get and keep an erection: 4
Subject two; Example 5, subject, 80 mg daily orally for 4 weeks
  overall sexual performance (subject report): better
Subject one; [5]
  confidence while being treated (subject report): more confident
  emotional experience with partner (subject report): better
  time to reach orgasm (subject report): shorter
  FSFI: confidence about becoming sexually aroused: very high
  FSFI: difficulty to become lubricated: slightly difficult
  FSFI: difficulty to maintain lubrication until completion: slightly difficult
  FSFI: difficulty to reach orgasm: not difficult
  FSFI: how often became lubricated: most times
  FSFI: how often felt sexual desire or interest: almost always or always
  FSFI: how often felt sexually aroused: almost always or always
  FSFI: how often maintained lubrication until completion: most times
  FSFI: how often reached orgasm: most times
  FSFI: how often satisfied with arousal: most times
  FSFI: level of sexual arousal: high
  FSFI: level of sexual desire or interest: moderate
  FSFI: satisfaction with ability to reach orgasm: very satisfied
  FSFI: satisfaction with amount of emotional closeness with partner: very satisfied
  FSFI: satisfaction with overall sexual life: very satisfied
  FSFI: satisfaction with sexual relationship with partner: very satisfied
Subject one; [6]
  confidence while being treated (subject report): more confident
  emotional experience with partner (subject report): better
  time to reach orgasm (subject report): shorter
  FSFI: confidence about becoming sexually aroused: very high
  FSFI: difficulty to become lubricated: not difficult
  FSFI: difficulty to maintain lubrication until completion: not difficult
  FSFI: difficulty to reach orgasm: not difficult
  FSFI: how often became lubricated: almost always or always
  FSFI: how often felt sexual desire or interest: almost always or always
  FSFI: how often felt sexually aroused: most times
  FSFI: how often maintained lubrication until completion: almost never or never
  FSFI: how often reached orgasm: almost always or always
  FSFI: how often satisfied with arousal: almost always or always
  FSFI: level of sexual arousal: very high
  FSFI: level of sexual desire or interest: very high
  FSFI: satisfaction with ability to reach orgasm: very satisfied
  FSFI: satisfaction with amount of emotional closeness with partner: very satisfied
  FSFI: satisfaction with overall sexual life: very satisfied
  FSFI: satisfaction with sexual relationship with partner: very satisfied
Subject one; [7]
  orgasms experienced after taking the drug, not experienced before (subject report): multiple orgasms
  FSFI: confidence about becoming sexually aroused: very high
  FSFI: difficulty to become lubricated: not difficult
  FSFI: difficulty to maintain lubrication until completion: not difficult
  FSFI: difficulty to reach orgasm: not difficult
  FSFI: how often became lubricated: almost always or always
  FSFI: how often felt sexual desire or interest: almost always or always
  FSFI: how often felt sexually aroused: almost always or always
  FSFI: how often maintained lubrication until completion: almost always or always
  FSFI: how often reached orgasm: almost always or always
  FSFI: how often satisfied with arousal: almost always or always
  FSFI: level of sexual arousal: very high
  FSFI: level of sexual desire or interest: very high
  FSFI: satisfaction with ability to reach orgasm: very satisfied
  FSFI: satisfaction with amount of emotional closeness with partner: very satisfied
  FSFI: satisfaction with overall sexual life: very satisfied
  FSFI: satisfaction with sexual relationship with partner: very satisfied
Subject one; daily oral administration, general statement
  sexual functioning of subjects suffering from sexual dysfunction: overall improvement
Subject one; [8]
  orgasmic ability (FSFI before and after): increased orgasmic ability
  sexual desire (FSFI before and after): increased sexual desire
  sexual satisfaction (FSFI before and after): increased sexual satisfaction
